This note sets out measurements from article PMC7998250, “Temperate Zone Plant Natural Products—A Novel Resource for Activity against Tropical Parasitic Diseases” (Pharmaceuticals, 2021).

SMILES strings stand for the structures. pEC50: −log10 of the molar value.

Data set [1] concerns HepG2 cells. The experiment in a line: Cytotoxicity CC50, HepG2, Alamar Blue. Conditions: read-out: HepG2 CC50; 48 h. In short, it runs like this:
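Human hepatoma cells seeded at 1 × 10^5 cells/mL with two-fold serial compound dilutions, incubated 48 h at 37 °C, 5% CO2 in DMEM/10% FBS. Viability read by Alamar Blue. CC50 estimated from viability normalised to untreated controls versus log concentration.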
(Resazurin is reduced to fluorescent resorufin, in cell work by metabolically active cells.)

In data set [2] the test system is WT L. mexicana procyclic promastigotes. Put plainly: EC50 in WT L. mexicana promastigotes. The format is cell-based. Conditions: Leishmania mexicana, read-out: EC50 in WT promastigotes. As to the method: (§1) A 700022-resistant line of L. mexicana (r22) was generated using a previously reported method (Figure S3). […] All leishmanicidal sterols identified were assayed against r22 after 8 weeks of 700022 pressure and cross-resistance was found against all four compounds, each with a similar resistance index of between 4–5 (Figure 6c). Following 28 weeks of selection, the morphology of the r22 promastigotes was compared to that of WT (Figure 6d). […] The body area of both promastigotes and amastigotes was also assessed, noting a small (c 20%) decrease in the body area of r22 parasites compared to WT strains (Figure S3).
(§2) L. mexicana parasites were grown in increasing concentrations of 700022 in a stepwise manner, as previously described. […] A dose response assay of the newly selected promastigotes was completed as stated above, with the exception of the seeding density of 1 × 10^5 cells/mL. At this point, the drug pressure was increased to the concentration of the new EC50 value.

The test system of data set [3] is L. mexicana r22 promastigotes. Put plainly: EC50 in 700022-resistant L. mexicana (r22) promastigotes. Type of data set: cell-based. Conditions: Leishmania mexicana, read-out: EC50 in r22 promastigotes, after 28 weeks of 700022 selection. As to the method: as §1, §2
The test system of data set [4] is L. mexicana intramacrophage amastigotes. The experiment in a line: L. mexicana intramacrophage assay (NanoLuc PEST strain in THP-1). Type of data set: cell-based, Leishmania mexicana. An excerpt: Figure S4: Leishmania intramacrophage assays. […] Data represents the mean and standard deviation (n=4). B Average number of parasites per macrophage in the same experiment as A. A Kruskal-Wallis test followed by Dunn’s multiple comparison test was used to determine a significant difference (p<0.05) of each treatment to the untreated control and have been indicated with those being significant marked with an asterix. C Comparing 700022 activity between axenic amastigotes (red) and intramacrophage amastigotes (blue). Concentration–response curves for compound 700022 against: intracellular L. mexicana NanoLuc-PEST-transgenic line (blue), axenic amastigotes of NanoLuc-PEST-transgenic line (red) as well as the human cell lines HepG2 (green) and THP-1 (black). The data for the intracellular L. mexicana NanoLuc-PEST-transgenic line represent one biological repeat of three technical repeats.

Data set [5] has as its system activated monocyte cell line (THP-1). The experiment in a line: Cytotoxicity CC50, differentiated THP-1, Alamar Blue. Type of data set: cell-based, human. The conditions noted are these: for CC50: differentiated THP-1, 48 h, read-out: THP1 CC50.
Where [6] appears, read: factor, relative to intramacrophage amastigote EC50.

As usually defined, the CC50 is the concentration at which the toxic effect on the cells reaches its halfway point. Regarding `C=C1C(=O)OC2CC(C)C3C=CC(=O)C3(C)C(OC(=O)C(C)CC)C12` (stereo not shown) [Compound 701158], the 50% cytotoxic concentration (CC50) in data set [1] was found to be 0.81 µM.
For orientation: pEC50 means −log10 of the EC50, conventionally taken in molar units. For `CC1=CC(O)(CC(C)C2(C)CC=C3C4=CCC5C(C)(C)C(O)CCC5(C)C4CCC32C)OC1=O` (stereo not shown) [Compound 700022], the pEC50 is 4.94 in data set [2]; 4.07 in data set [3]; 4.97 in data set [4] (Leishmania mexicana, L. mexicana NanoLuc PEST strain in THP-1). The “selectivity over HepG2” value in data set [4] (setting [6]) turned out to be 2.7. Further, in data set [4] (setting [6]), the “selectivity over THP-1” value is 1.6.
As to `C=C1C(=O)OC2CC(C)C3C=CC(=O)C3(C)C(OC(C)=O)C12` (stereo not shown) [Compound 701155], the 50% cytotoxic concentration (CC50) in data set [1] amounted to 1.1 µM; in data set [5], 0.38 µM.
As for `C/C(=C/C(=O)CC(C)C1CCC2(C)C3=CCC4C(C)(C)C(=O)CCC4(C)C3CCC12C)C(=O)O` (stereo not shown) [Compound 700240], the “selectivity index (THP-1 CC50 / L. mexicana EC50)” value in data set [5] (L. mexicana compared to THP-1) came out at 21. For the same compound, the CC50 in data set [5] worked out at 14 µM.
